Data as given in patent US8106055B2, “Substituted amide compounds” (Gruenenthal GmbH, priority 2007, dated 2012).

Target: T1, human μ opiate receptor (Homo sapiens, UniProt P35372)
T1 construct: purchased PerkinElmer Life Sciences, Zaventem, Belgium RB-HOM; host or cells: CHO-K1 cells (membrane preparation)
Assay: Affinity for the human μ opiate receptor ([3H]-naloxone displacement, CHO-K1 receptor membrane preparation, SPA)
Assay type: binding
Conditions: 1.5 h, Table 2; test concentration 1 μM; read-out: μ receptor
Outline: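 Readout is percent displacement of [3H]-naloxone (1 nmol/l) from human μ receptor in CHO-K1 membranes, measured at 1 μmol/l compound. Incubation runs 90 minutes at room temperature with WGA-SPA beads in Tris-HCl/BSA buffer; non-specific binding is defined with 100 μmol/l naloxone.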

T1 sequence (P35372 whole entry): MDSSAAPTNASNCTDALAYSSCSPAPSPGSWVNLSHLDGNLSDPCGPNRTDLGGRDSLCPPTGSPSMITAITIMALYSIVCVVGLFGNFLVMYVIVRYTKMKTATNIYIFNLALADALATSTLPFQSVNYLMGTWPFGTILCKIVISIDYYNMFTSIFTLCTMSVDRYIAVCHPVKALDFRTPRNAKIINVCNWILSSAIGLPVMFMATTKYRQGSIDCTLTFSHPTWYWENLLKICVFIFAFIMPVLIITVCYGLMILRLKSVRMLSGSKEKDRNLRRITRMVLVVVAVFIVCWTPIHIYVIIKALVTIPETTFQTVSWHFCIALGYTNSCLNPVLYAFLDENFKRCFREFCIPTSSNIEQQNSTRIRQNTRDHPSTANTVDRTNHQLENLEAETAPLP

SMILES | inhibition at 1 µM [%]
O=C(COCCN(C1CC1)S(=O)(=O)c1c(Cl)cc(Cl)cc1Cl)NC1CCC(C(c2ccccc2)N2CCCC2)CC1 (stereo not drawn) [Example 603, 2-{2-[cyclopropyl-(2,4,6-trichlorobenzenesulfonyl)-amino]-ethoxy}-N-[4-(phenylpyrrolidin-1-ylmethyl)-cyclohexyl]-acetamide] | 45
CN(CCOCC(=O)NC1CCC(C(c2ccccc2)N2CCCC2)CC1)S(=O)(=O)c1c(Cl)cc(Cl)cc1Cl (stereo not drawn) [Example 606, 2-{2-[methyl-(2,4,6-trichlorobenzenesulfonyl)-amino]-ethoxy}-N-[4-(phenylpyrrolidin-1-yl-methyl)-cyclohexyl]-acetamide] | 46
CN(C)C(c1ccccc1)C1CCC(NC(=O)COC2CCCN(S(=O)(=O)c3c(Cl)cc(Cl)cc3Cl)C2)CC1 (stereo not drawn) [Example 608, N-[4-(dimethylaminophenylmethyl)-cyclohexyl]-2-[1-(2,4,6-trichlorobenzenesulfonyl)-piperidin-3-yloxy]-acetamide] | 89
CN(C)C(c1ccccc1)C1CCC(NC(=O)COC2CCN(S(=O)(=O)c3c(Cl)cc(Cl)cc3Cl)C2)CC1 (stereo not drawn) [Example 609, N-[4-(dimethylaminophenylmethyl)-cyclohexyl]-2-[1-(2,4,6-trichlorobenzenesulfonyl)-pyrrolidin-3-yloxy]-acetamide] | 94
CN(C)C(c1ccccc1)C1CCC(NC(=O)COCC2CCCN2S(=O)(=O)c2c(Cl)cc(Cl)cc2Cl)CC1 (stereo not drawn) [Example 611, N-[4-(Dimethylaminophenylmethyl)-cyclohexyl]-2-[1-(2,4,6-trichlorobenzenesulfonyl)-pyrrolidin-2-ylmethoxy]-acetamide] | 93
CN(C)C(c1ccccc1)C1CCC(CNC(=O)COCCN(C)S(=O)(=O)c2c(Cl)cc(Cl)cc2Cl)CC1 (stereo not drawn) [Example 614, N-[4-(dimethylaminophenylmethyl)-cyclohexylmethyl]-2-{2-[(2,4,6-trichlorobenzenesulfonyl)-methylamino]-ethoxy}-acetamide] | 96
CN(C)C(c1ccccc1)C1CCC(NC(=O)COCCN(C)S(=O)(=O)c2c(Cl)cc(Cl)cc2Cl)C1 (stereo not drawn) [Example 615, N-[3-(dimethylaminophenylmethyl)-cyclopentyl]-2-{2-[(2,4,6-trichlorobenzenesulfonyl)-methylamino]-ethoxy}-acetamide] | 89

Same assay, conditions: Table 2; test concentration 1 μM

SMILES | μ receptor [% inhibition]
CN(C)C(c1ccccc1)C1CCC(NC(=O)COCC2CCCN2S(=O)(=O)c2c(Cl)cc(Cl)cc2Cl)CC1 (stereo not drawn) [Example 612, N-[4-(Dimethylaminophenylmethyl)-cyclohexyl]-2-[1-(2,4,6-trichlorobenzenesulfonyl)-pyrrolidin-2-ylmethoxy]-acetamide] | 88
CN(C)C(c1ccccc1)C1CCC(NC(=O)COCC2CCCN2S(=O)(=O)c2c(Cl)cc(Cl)cc2Cl)CC1 (stereo not drawn) [Example 613, N-[4-(Dimethylaminophenylmethyl)-cyclohexyl]-2-[1-(2,4,6-trichlorobenzenesulfonyl)-pyrrolidin-2-ylmethoxy]-acetamide] | 90

Same assay, conditions: test concentration of 1 μM

SMILES | μ (binding on the μ opioid receptor, % inhibition) [%]
COc1ccc(S(=O)(=O)N2CCC(OCC(=O)NCCC3CCC(C(c4cccc(F)c4)N(C)C)CC3)C2)cc1OC (stereo not drawn) [Example 262] | 82
CN(C)C(c1ccc(Cl)cc1)C1CCC(CNC(=O)COCCN(C)S(=O)(=O)c2ccc(F)cc2)CC1 (stereo not drawn) [Example 263] | 72
Cc1cc(C)c(S(=O)(=O)N2CCC(OCC(=O)NCCC3CCC(C(c4cccc(F)c4)N(C)C)CC3)C2)c(C)c1 (stereo not drawn) [Example 264] | 77
COc1cc(C)c(S(=O)(=O)N2CCC(OCC(=O)NCC3CCC(C(c4cccc(F)c4)N(C)C)CC3)C2)c(C)c1 (stereo not drawn) [Example 265] | 79
CN(C)C(c1cccc(F)c1)C1CCC(NC(=O)COCC2CCCN(S(=O)(=O)c3ccccc3)C2)CC1 (stereo not drawn) [Example 266] | 74
CN(C)C(c1ccc(F)cc1)C1CCC(CNC(=O)COCC2CCCN2S(=O)(=O)c2ccc(Cl)c(Cl)c2)CC1 (stereo not drawn) [Example 267] | 73
COc1ccc(S(=O)(=O)N2CCCC2COCC(=O)NC2CCC(C(c3cccc(F)c3)N(C)C)CC2)cc1 (stereo not drawn) [Example 268] | 70
CN(C)C(c1ccc(Cl)cc1)C1CCC(CNC(=O)COC2CCCCC2N(C)S(=O)(=O)c2ccc(Cl)c(Cl)c2)CC1 (stereo not drawn) [Example 269] | 74
CN(C)C(c1cccc(F)c1)C1CCC(NC(=O)COC2CCN(S(=O)(=O)c3ccccc3)C2)CC1 (stereo not drawn) [Example 271] | 72
Cc1ccc(S(=O)(=O)N2CCC(OCC(=O)NCCC3CCC(C(c4cccs4)N(C)C)CC3)C2)cc1 (stereo not drawn) [Example 272] | 73
Cc1ccc(S(=O)(=O)N(C)CCOCC(=O)NCC2CCC(C(c3ccc(Cl)cc3)N(C)C)CC2)cc1 (stereo not drawn) [Example 273] | 68
CN(C)C(c1ccc(Cl)cc1)C1CCC(CCNC(=O)COCCN(C)S(=O)(=O)c2c(Cl)cccc2Cl)CC1 (stereo not drawn) [Example 274] | 68
CN(C)C(c1cccc(F)c1)C1CCC(CNC(=O)COC2CCN(S(=O)(=O)c3ccc(F)cc3)C2)CC1 (stereo not drawn) [Example 275] | 71
CN(C)C(c1cccs1)C1CCC(CNC(=O)COC2CCN(S(=O)(=O)c3ccccc3)CC2)CC1 (stereo not drawn) [Example 276] | 78
CN(C)C(c1cccc(F)c1)C1CCC(NC(=O)COC2CCCN(S(=O)(=O)c3ccccc3)C2)CC1 (stereo not drawn) [Example 277] | 68
